Test results from US8987195B2 (priority 2012, dated 2015).
Read-outs that look alike come from different tables or passages of the source.

Test system: HCV genotype 1b replicon
Test: HCV replicon assay, genotype 1b replicon EC50
Format: cell-based, Hepatitis C virus
Conditions: genotype 1b replicon, read-out: EC50 [gt-1b]
Protocol: Measuring Compound Inhibitory Potency (Genotype 1b Replicon EC50 (nM))
Measurement of inhibition by compounds was performed using the HCV replicon system. Several different replicons encoding different HCV genotypes or mutations were used. In addition, potency measurements were made using different formats of the replicon assay, including different ways of measurements and different plating formats. See Jan M. Vrolijk et al., A replicons-based bioassay for the measurement of interferons in patients with chronic hepatitis C, 110 J. VIROLOGICAL METHODS 201 (2003); Steven S. Carroll et al., Inhibition of Hepatitis C Virus RNA Replication by 2′-Modified Nucleoside Analogs, 278(14) J. BIOLOGICAL CHEMISTRY 11979 (2003). However, the underlying principles are common to all of these determinations, and are outlined below.
Stable neomycin phosphotransferase encoding replicon-harboring cell lines were used, so all cell lines were maintained under G418 selection prior to the assay. In some cases the cell lines encoded a luciferase:Neo^r fusion and could be assayed either directly by determination of RNA copy number, or indirectly through measurement of the luciferase activity.
To initiate an assay, replicon cells were plated in the presence of a dilution series of test compound in the absence of G418. Typically, the assays were performed in a 96-well plate format for manual operation, or a 384 well plate in an automated assay. Replicon cells and compound were incubated for 24-48 hours, depending on the assay. At the end of the assay, cells are washed free of media and compound and then lysed. For direct quantitation, RNA levels were measured by ^32P-probe hybridization and protection, or in a TAQMAN based assay and normalized to cellular cyclophilin A RNA levels. In some cases, luciferase activity was measured using a conventional luciferase assay. In all cases EC50 determinations were calculated as a percent of a DMSO control by fitting the data to a four parameter fit function.

| SMILES | EC50 (Hepatitis C virus) [nM] | EC50 [nM] |
| --- | --- | --- |
| CC(C)(C)OC(=O)N[C@H]1CCCCC/C=C\[C@@H]2C[C@@]2(C(=O)NS(=O)(=O)C2(C)CC2)NC(=O)[C@@H]2C[C@]3(CCc4c(c(-c5cccc(F)c5)nc5ccccc45)O3)CN2C1=O [Example 13, tert-Butyl (2R,6S,13aS,14aR,16aS,Z)-5′-(3-fluorophenyl)-14a-(1-methylcyclopropylsulfonylcarbamoyl)-5,16-dioxo-1′,2′,3,5,6,7,8,9,10,11,13a,14,14a,15,16,16a-hexadecahydro-1H-spiro[cyclopropa[e]pyrrolo[1,2-a][1,4]diazacyclopentadecine-2,3′-pyrano[2,3-c]quinoline-]-6-ylcarbamate] | 4.23 |  |
| CC(C)(C)OC(=O)N[C@H]1CCCCC/C=C\[C@@H]2C[C@@]2(C(=O)NS(=O)(=O)C2(C)CC2)NC(=O)[C@@H]2C[C@@]3(CCc4c(c(-c5cccc(F)c5)nc5ccccc45)O3)CN2C1=O [Example 14, tert-Butyl (2S,6S,13aS,14aR,16aS,Z)-5′-(3-fluorophenyl)-14a-(1-methylcyclopropylsulfonylcarbamoyl)-5,16-dioxo-1′,2′,3,5,6,7,8,9,10,11,13a,14,14a,15,16,16a-hexadecahydro-1H-spiro[cyclopropa[e]pyrrolo[1,2-a][1,4]diazacyclopentadecine-2,3′-pyrano[2,3-c]quinoline]-6-ylcarbamate] | 6.5 |  |
| CC(C)(C)OC(=O)N[C@H]1CCCCC/C=C\[C@@H]2C[C@@]2(C(=O)NS(=O)(=O)C2CC2)NC(=O)[C@@H]2C[C@]3(CCc4c(c(-c5cccc(F)c5)nc5ccccc45)O3)CN2C1=O [Example 15, tert-Butyl (2R,6S,13aS,14aR,16aS,Z)-14a-(cyclopropylsulfonylcarbamoyl)-5′-(3-fluorophenyl)-5,16-dioxo-1′,2′,3,5,6,7,8,9,10,11,13a,14,14a,15,16,16a-hexadecahydro-1H -spiro[cyclopropa[e]pyrrolo[1,2-a][1,4]diazacyclopentadecine-2,3′-pyrano[2,3-c]quinoline]-6-ylcarbamate] | 9.36 |  |
| CC(C)(C)OC(=O)N[C@H]1CCCCC/C=C\C2CC2(C(=O)NS(=O)(=O)C2(C)CC2)NC(=O)C2C[C@]3(CCc4c(c(C5CC5)nc5ccccc45)O3)CN2C1=O (stereo partly drawn) [Example 18, tert-Butyl (2R,6S,13aS,14aR,16aS,Z)-5′-cyclopropyl-14a-(1-methylcyclopropylsulfonylcarbamoyl)-5,16-dioxo-1′,2′,3,5,6,7,8,9,10,11,13a,14,14a,15,16,16a-hexadecahydro-1H-spiro[cyclopropa[e]pyrrolo[1,2-a][1,4]diazacyclopentadecine-2,3′-pyrano[2,3-c]quinoline-]-6-ylcarbamate] | 0.77 |  |
| CC(C)COC(=O)N[C@H]1CCCCC/C=C\[C@@H]2C[C@@]2(C(=O)NS(=O)(=O)C2(C)CC2)NC(=O)[C@@H]2C[C@]3(CCc4c(c(-c5cccc(F)c5)nc5ccccc45)O3)CN2C1=O [Example 21, Isobutyl (2R,6S,13aS,14aR,16aS,Z)-5′-(3-fluorophenyl)-14a-(1-methylcyclopropylsulfonylcarbamoyl)-5,16-dioxo-1′,2′,3,5,6,7,8,9,10,11,13a,14,14a,15,16,16a-hexadecahydro-1H-spiro[cyclopropa[e]pyrrolo[1,2-a][1,4]diazacyclopentadecine-2,3′-pyrano[2,3-c]quinoline]-6-ylcarbamate] | 0.81 |  |
| CC1(OC(=O)N[C@H]2CCCCC/C=C\[C@@H]3C[C@@]3(C(=O)NS(=O)(=O)C3(C)CC3)NC(=O)[C@@H]3C[C@]4(CCc5c(c(-c6cccc(F)c6)nc6ccccc56)O4)CN3C2=O)CC1 [Example 22, 1-Methylcyclopropyl (2R,6S,13aS,14aR,16aS,Z)-5′-(3-fluorophenyl)-14a-(1-methylcyclopropylsulfonylcarbamoyl)-5,16-dioxo-1′,2′,3,5,6,7,8,9,10,11,13a,14,14a,15,16, 16a-hexadecahydro-1H-spiro[cyclopropa[e]pyrrolo[1,2-a][1,4]diazacyclopentadecine-2,3′-pyrano[2,3-c]quinoline]-6-ylcarbamate] | 4.14 |  |
| CC(C)(C)NC(=O)N[C@H]1CCCCC/C=C\[C@@H]2C[C@@]2(C(=O)NS(=O)(=O)C2(C)CC2)NC(=O)[C@@H]2C[C@]3(CCc4c(c(-c5cccc(F)c5)nc5ccccc45)O3)CN2C1=O [Example 23, (2R,6S,13aS,14aR,16aS,Z)-6-(3-tert-Butylureido)-5′-(3-fluorophenyl)-N-(1-methylcyclopropylsulfonyl)-5,16-dioxo-1′,2′,3,5,6,7,8,9,10,11,13a,14,14a,15,16,16a-hexadecahydro-1H-spiro[cyclopropa[e]pyrrolo[1,2-a][1,4]diazacyclopentadecine-2,3′-pyrano[2,3-c]quinoline]-14a-carboxamide] | 9.13 |  |
| CC1(S(=O)(=O)NC(=O)[C@@]23C[C@H]2/C=C\CCCCC[C@H](NC(=O)CC(F)(F)F)C(=O)N2C[C@@]4(CCc5c(c(-c6cccc(F)c6)nc6ccccc56)O4)C[C@H]2C(=O)N3)CC1 [Example 24, (2R,6S,13aS,14aR,16aS,Z)-5′-(3-Fluorophenyl)-N-(1-methylcyclopropylsulfonyl)-5,16-dioxo-6-(3,3,3-trifluoropropanamido)-1′,2′,3,5,6,7,8,9,10,11,13a,14,14a,15,16, 16a-hexadecahydro-1H-spiro[cyclopropa[e]pyrrolo[1,2-a][1,4]diazacyclopentadecine-2,3′-pyrano[2,3-c]quinoline]-14a-carboxamide] | 5.92 |  |
| COc1ccc2nc(C(F)(F)F)c3c(c2c1)[C@H](OC(=O)NS(=O)(=O)C1(C)CC1)C[C@]1(C[C@H]2C(=O)N[C@]4(C(=O)NS(=O)(=O)C5(C)CC5)C[C@H]4/C=C\CCCCC[C@H](NC(=O)OC(C)(C)C)C(=O)N2C1)O3 [Example 52, tert-Butyl ((1′R,2S,6S,13aS,14aR,16aS,Z)-9′-methoxy-14a-(((1-methylcyclopropyl)sulfonyl)carbamoyl)-1′-((((1-methylcyclopropyl)sulfonyl)carbamoyl)oxy)-5,16-dioxo-5′-(trifluoromethyl)-1′,2′,3,5,6,7,8,9,10,11,13a,14,14a,15,16,16a-hexadecahydro-1H-spiro[cyclopropa[e]pyrrolo[1,2-a][1,4]diazacyclopentadecine-2,3′-pyrano[2,3-c]quinolin]-6-yl)carbamate] |  | 1.77 |
| COc1ccc2nc(C(F)(F)F)c3c(c2c1)[C@H](OC(=O)NS(=O)(=O)C1(C)CC1)C[C@]1(C[C@H]2C(=O)N[C@]4(C(=O)NS(=O)(=O)C5(C)CC5)C[C@H]4/C=C\CCCCC[C@H](NC(=O)OC(C)(C)C)C(=O)N2C1)O3 [Example 53, tert-Butyl ((1′R,2S,6S,13aS,14aR,16aS,Z)-9′-methoxy-14a-(((1-methylcyclopropyl)sulfonyl)carbamoyl)-1′-((((1-methylcyclopropyl)sulfonyl)carbamoyl)oxy)-5,16-dioxo-5′-(trifluoromethyl)-1′,2′,3,5,6,7,8,9,10,11,13a,14,14a,15,16,16a-hexadecahydro-1H-spiro[cyclopropa[e]pyrrolo[1,2-a][1,4]diazacyclopentadecine-2,3′-pyrano[2,3-c]quinolin]-6-yl)carbamate] |  | 15.9 |
